Source: patent publication US4024282A, “Pharmaceutically active 2-(3-alkylaminopropoxy)diphenylmethanes” (Mitsubishi Chemical Industries Ltd., priority 1975, dated 1977)
Counter-ions that a name gives are not always drawn. Like-named read-outs stand apart in the source and are kept apart here.

Experiments:
[1] = test system: reserpine induced hypothermia; experiment: Antagonism of reserpine induced hypothermia in mice (antireserpine / antidepressant activity); type: in vivo; conditions: for Antidepressant activity (in words): according to pharmacological testing, reversal of reserpine hypothermia in mice
Description: (§1) The compounds were administered intraperitoneally and the activities of the compounds were compared with those of Amitriptyline.

[2] = test system: electroshock induced tonic extensor; experiment: Antagonism of electroshock induced tonic extensor (anticonvulsant activity); type: in vivo; conditions: Mus musculus, ip; mice; dose preventing 50% of response
Description: as §1

[3] = test system: neurological deficit as measured by traction tests; experiment: Traction test (CNS depressant activity, muscle relaxant action); type: in vivo; conditions: mice; for ED50: Mus musculus, ip, traction test, dose preventing 50% of response
Description: as §1

[4] = test system: spontaneous motor activity; experiment: Spontaneous motor activity measured by ANIMEX apparatus (CNS depressant activity); type: in vivo; conditions: Mus musculus, ip, mice, i.p., dose preventing 50% of response, read-out: Spontaneous motor activity depression ED50
Description: as §1

[5] = test system: tremorine induced tremor; experiment: Tremorine induced tremor (central anticholinergic effect); type: in vivo; conditions: mice; for ED50: Mus musculus, ip, i.p., dose preventing 50% of response, read-out: Antitremorine effect ED50
Description: as §1

[6] = in vivo; conditions: mouse, ip
[7] = mice, in b83 as compared with Amitriptyline at the same relative potency

| Structure (SMILES) | Antidepressant activity (in words) [1] | ED50 [2] | ED50 [3] | ED50 [4] | ED50 [5] | LD50 [6] | further results |
| --- | --- | --- | --- | --- | --- | --- | --- |
| CN(C)CCOc1ccccc1Cc1ccccc1 [2-(2-dimethylaminoethoxy) diphenylmethane] | do not possess antidepressant activity |  |  |  |  |  |  |
| CNCCOc1ccccc1Cc1ccccc1 [2-(2-methylaminoethoxy) diphenylmethane] | do not possess antidepressant activity |  |  |  |  |  |  |
| CN(C)CCCOc1ccccc1Cc1ccccc1 [2-(3-dimethylaminopropoxy)-diphenylmethane] | do not possess antidepressant activity |  |  |  |  |  |  |
| CNCCCOc1ccccc1Cc1ccccc1 [2-(3-methylaminopropoxy) diphenylmethane hydrochloride] |  | 40 mg/kg | 65 mg/kg | 90 mg/kg | 42 mg/kg | 160 mg/kg | Antireserpine activity, Relative Potency ([1]; mice, i.p., reserpine 5 mg/kg i.p., Amitriptyline = 1): 0.56 |
| CNCCCOc1ccccc1Cc1ccccc1 [2-(3-methylaminopropoxy) diphenylmethane] | high level of antidepressant activity |  |  |  |  |  | CNS depressant action (in words) ([3]; as compared with Amitriptyline at the same relative potency, traction test and spontaneous motor activity): weaker CNS depressant; Anticholinergic action (in words) ([5]; as compared with Amitriptyline at the same relative potency): weaker CNS depressant and anticholinergic action; Toxicity (in words) [7]: low level of toxicity; Toxicity (in words) ([7]; listed as 2-(3-methylaminopropoxy)diphenylmethane): lower toxicity |
| CN(C)CCC=C1c2ccccc2CCc2ccccc21 [Amitriptyline, reference compound] |  | 16 mg/kg | 15 mg/kg | 18 mg/kg | 4 mg/kg | 65 mg/kg |  |
